“And” between values parts separate entries of the source, which are not always exact repeats. Equal values may be shown once. Read-outs that look alike come from different tables or passages of the source.
Key:
[1] = system: LPS-induced NO production in N9 microglial cells; assay: LPS-induced NO production (Griess assay); format: cell-based, mouse; conditions: for Nitrite: control 4.60, LPS group 31.81 μM; for Nitrite / inhibition at 25 µM / inhibition at 50 µM / % Inhibition of NO Production: mean ± S.E.M.; for inhibition at 25 µM / inhibition at 50 µM: N9, 24 h; for % Inhibition of NO Production: 50 µM
Experimental: Figure 2 Inhibitory effects of TBIII (A) and t-HL (B) in LPS-stimulated N9 microglial cells. Cells were pretreated with different concentrations of TBIII and t-HL 1 h prior to the addition of LPS (100 ng/mL) and were further incubated for 24 h. NO production was determined by using the Griess reagent. IC50 values and curve fitting were determined using Graphpad Prism (GraphPad, Avenida, CA, USA).
Accumulation of nitrite, a metabolite of NO in the culture media, was measured by Griess assay as previously reported. Briefly, cells were stimulated with 100 ng/mL of LPS for 24 h in the presence of the test compounds (0–50 μM).

[2] = system: various kinds of tumor cells; parameters: method as in PMID 15971131, PMID 28548219, PMID 29393481, PMID 27897231; conditions: cited from earlier work
[3] = MTT assay for cell viability; conditions: mouse, N9 microglial cells, % Cell Viability, 24 h, MTT, mean ± S.E.M.; for viability at 24 h, 25 µM: 25 μM compound; for viability at 24 h, 50 µM: 50 μM compound
Experimental: (§6) The N9 microglial cell line was obtained from China Cell Line Bank. The cells were grown at 37 °C in IMDM supplemented with 10% heat-inactivated FBS under a humidified atmosphere of 5% CO2. In this experiment, cells were allowed to acclimate for 24 h before treatments.
(§7) Cell viability was evaluated by the MTT reduction assay [36]. Cells were seeded in 96-well plates at a density of 2 × 10^4 cells/well and allowed to grow for 24 h before treatments. Thereafter, 100 μL medium containing various concentrations (0–50 μM) of compounds were added and incubated for another 24 h. MTT was dissolved in DD water (5 mg/mL) and 10 μL were added to each well. After 4 h, the medium was removed and 100 μL DMSO were filled in each well. The optical density was measured at 490 nm on a Flexstation 3 (Molecular Devices, Silicon Valley, CA, USA).

[4] = system: N9 microglial cells; assay: MTT assay for cell viability
Experimental: as §6, §7

[5] = system: scopolamine-induced cognition deficits; parameters: method as in PMID 27444169; conditions: mice; cited from earlier work
[6] = system: iNOS; assay: iNOS expression by Western blot in LPS-stimulated N9 cells; format: cell-based, mouse; conditions: pretreated 1 h, LPS 100 ng/mL 24 h, dose-dependent
Experimental: Figure 3 Effects of TBIII (A) and t-HL (B) on the expression of iNOS induced by LPS in N9 microglial cells. The iNOS protein levels were analyzed by Western blot. Cells were treated with different concentrations of TBIII and t-HL for 1 h and then stimulated with LPS (100 ng/mL) for 24 h. The iNOS signal was normalized to the β-actin signal. Parthenolide (PAR, 10 μM) was used as a positive control. The data were obtained from three independent experiments and expressed as the means ± S.E.M. * p < 0.05, ** p < 0.01, *** p < 0.001 versus the LPS-treated group; ^### p < 0.001 versus the control group.
(§1) N9 cells were plated into 12-well plates (4 × 10^5 cells/well) and pretreated with different concentrations of TBIII and t-HL for 1 h, then stimulated by 100 ng/mL of LPS for 24 h. Nuclear and cytoplasmic proteins were obtained with nuclear and cytoplasmic protein extraction kit (Beyotime Biotechnology, Shanghai, China) according to the manufacturer′s protocol. Proteins were collected by SDS-PAGE Sample Loading Buffer (Yeasen, Shanghai, China) and heated at 99 °C for 10 min. Proteins in sample loading buffer were separated on 10% sodium dodecyl sulfate (SDS)-polyacrylamide gel electrophoresis (PAGE) and followed by transferring to nitrocellulose membranes (Whatman Protran, Dassel, Germany). […] The immunoreactive bands were quantified using the NIH Image J software (NIH, Bethesda, MD, USA).

[7] = system: TNF-α; assay: LPS-induced TNF-α mRNA expression (real-time PCR); format: cell-based, mouse; conditions: pretreated 1 h, LPS 100 ng/mL 4 h, dose-dependent
Experimental: (§2) Figure 4 Effects of TBIII (A) and t-HL (B) on LPS-induced mRNA expression of pro-inflammatory cytokines in N9 microglial cells. Cells were treated with different concentrations of TBIII and t-HL for 1 h and then stimulated with LPS (100 ng/mL) for 4 h. TNF-α and IL-6 mRNA levels were determined by real-time PCR analysis. […] The data were obtained from three independent experiments and expressed as the means ± […] < 0.001 versus the LPS-treated group; ^### p < 0.001 versus the control group. Total RNA was extracted from cells using Trizol reagent (Invitrogen, Carlsbad, CA, USA). Reverse transcription of RNA was performed with the Reverse Transcription System […] kit (Promega, Madison, WI, USA) according to the manufacturer's protocol. The complementary DNA (cDNA) was subsequently subjected to Real-Time PCR to quantify the transcripts of TNF-α and IL-6 using SYBR® Green Real-time PCR Master Mix (TOYOBO, Osaka, Japan). […] The primers for the mouse housekeeping gene glyceraldehyde-3-phosphate dehydrogenase ([…] was performed according to the following conditions: 94 °C for 3 min, 40 cycles of denaturation at 94 °C for 30 s, annealing at 56 °C for 45 s, extension at 72 °C for 30 s, followed by a final extension at 72 °C for 10 min. The quantified fold changes in messenger RNA (mRNA) in each sample were normalized to GAPDH expression and calculated using the 2exp (-ΔΔCt) method.

[8] = system: IL-6; assay: LPS-induced IL-6 mRNA expression (real-time PCR); format: cell-based, mouse; conditions: pretreated 1 h, LPS 100 ng/mL 4 h, dose-dependent
Experimental: as §2

[9] = system: TNF-α; assay: LPS-induced TNF-α production (ELISA); format: cell-based, mouse; conditions: pretreated 1 h, LPS 100 ng/mL 24 h
Experimental: (§3) Figure 5 Effects of TBIII (A) and t-HL (B) on LPS-induced production of pro-inflammatory cytokines in N9 microglial cells. Cells were pre-treated with TBIII and t-HL for 1 h and then stimulated with LPS (100 ng/mL) for 24 h. The protein levels of TNF-α and IL-6 determined by ELISA according to manufacturer′s instructions. PAR (10 μM) was used as a positive control. The data were obtained from three independent experiments and expressed as the means ± S.E.M. * p < 0.05, ** p < 0.01, *** p < 0.001 versus the LPS-treated group; ^## p < 0.01, ^### p < 0.001 versus the control group.
(§4) N9 cells were plated into 24-well plates (2 × 10^5 cells/well). After cells became adherent, they were pretreated with different concentrations of TBIII and t-HL for 1 h before stimulation with 100 ng/mL of LPS. The supernatants of cultured medium were collected and the production of TNF-α and IL-6 was measured after incubation for 24 h using an ELISA kit according to manufacturer′s instructions.

[10] = system: IL-6; assay: LPS-induced IL-6 production (ELISA); format: cell-based, mouse; conditions: pretreated 1 h, LPS 100 ng/mL 24 h
Experimental: as §3, §4

[11] = system: Akt; assay: LPS-induced activation of Akt (Western blot); format: cell-based, mouse; conditions: pretreated 1 h, LPS 100 ng/mL
Experimental: (§5) Figure 6 Effect of TBIII and t-HL on LPS-induced activation of Akt (A,C) and NF-κB (B,D) in N9 cells. Cells were treated with different concentrations of TBIII and t-HL for 1 h prior to stimulation with LPS (100 ng/mL). Nuclear and cytoplasmic proteins were obtained and analyzed by western blot. PAR (10 μM) was used as a positive control. The data shown represent the mean ± S.E.M of three independent experiments. * p < 0.05, ** p < 0.01, *** p < 0.001 versus the LPS-treated group; ^# p < 0.05, ^## p < 0.01, ^### p < 0.001 versus the control group.
as §1

[12] = system: NF-κB; assay: LPS-induced activation of NF-κB (Western blot, nuclear p65); format: cell-based, mouse; conditions: pretreated 1 h, LPS 100 ng/mL
Experimental: as §5, §1

[13] = system: neuronal injury; parameters: method as in PMID 23287539; conditions: cited from earlier work
[14] = in vitro; conditions: mouse, % Cell Viability
Experimental: as §6, §7

[15] = system: N9 microglial cells
Experimental: as §6, §7

[16] = system: mouse model of postpartum depression; conditions: cited from earlier work
[17] = 25 μM compound, LPS 100 ng/mL, 24 h
[18] = 50 μM compound, LPS 100 ng/mL, 24 h
[19] = Mus musculus, 25 μM compound, LPS 100 ng/mL, 24 h, read-out: % Inhibition of NO Production
[20] = Mus musculus, 50 μM compound, LPS 100 ng/mL, 24 h, read-out: % Inhibition of NO Production

Structure (SMILES): C[C@@H]1O[C@@H](O[C@H]2[C@H](OC(=O)[C@]34CCC(C)(C)C[C@H]3C3=CC[C@@H]5[C@@]6(C)C[C@H](O)[C@H](O[C@@H]7O[C@H](CO)[C@@H](O)[C@H](O)[C@H]7O)C(CO)(CO)[C@@H]6CC[C@@]5(C)[C@]3(C)C[C@H]4O)OC[C@H](O)[C@@H]2O)[C@H](O)[C@H](O)[C@H]1O[C@@H]1OC[C@@H](O)[C@H](O[C@@H]2OC[C@](O)(CO)[C@H]2O)[C@H]1O [Compound 14, Platycodin D]
- Nitrite [1, 17]: 28.94 ± 0.40 µM
- Nitrite [1, 18]: 4.29 ± 0.59 µM
- inhibition at 25 µM [1, 19]: 8.65 ± 2.24%
- inhibition at 50 µM [1, 20]: 86.5 ± 2.71%
- cytotoxicity towards tumor cells [2]: significant cytotoxicity
- viability at 24 h, 25 µM [3]: 40.2 ± 9.18%
- viability at 24 h, 50 µM [3]: 17.9 ± 1.99%
- cell viability reduced to ([4]; at 25 and 50 μM): ≤ 60%

Structure (SMILES): C[C@@H](CC[C@@]1(O)O[C@H]2C[C@H]3[C@@H]4CC[C@@H]5C[C@@H](O[C@@H]6O[C@H](CO)[C@H](O)[C@H](O)[C@H]6O[C@@H]6O[C@H](CO)[C@@H](O)[C@H](O)[C@H]6O)CC[C@]5(C)[C@H]4CC[C@]3(C)[C@H]2[C@@H]1C)CO[C@@H]1O[C@H](CO)[C@@H](O)[C@H](O)[C@H]1O [Timosaponin BII]
- effect on scopolamine-induced cognition deficits [5]: ameliorate scopolamine-induced cognition deficits

Structure (SMILES): C=CC(C=Cc1ccc(O)cc1)c1ccc(O)cc1 (stereo not drawn) [Compound 23, trans-Hinokiresinol]
- Nitrite [1, 17]: 14.93 ± 0.41 µM
- Nitrite [1, 18]: 5.18 ± 0.06 µM
- % Inhibition of NO Production [1, 18]: 83.73 ± 0.22 %
- inhibition at 25 µM [1, 19]: > 50%
- inhibition at 50 µM [1, 20]: 83%
- IC50 ([1]; Mus musculus, N9, pretreated 1 h, LPS 100 ng/mL, 24 h, Griess reagent, read-out: IC50, inhibition of NO production): 39.1 µM
- iNOS protein expression [6]: significantly attenuated
- TNF-α mRNA expression [7]: significantly suppressed
- IL-6 mRNA expression [8]: significantly suppressed
- TNF-α production (protein) [9]: significantly suppressed
- IL-6 production (protein) [10]: significantly suppressed
- phosphorylation of Akt / PI3K/Akt signaling activation [11]: not affected
- NF-κB signaling / p65 subunit into nuclei [12]: significantly prevented
- effect on neuronal injury [13]: protective effect
- viability at 24 h, 25 µM [3]: 108 ± 4.39%
- viability at 24 h, 50 µM [3]: 98.3 ± 11.6%
- cytotoxicity against N9 microglial cells (in words) ([4]; MTT): non-cytotoxic

Structure (SMILES): CCC1C(OC(=O)CCC(C)COC2OC(CO)C(O)C(O)C2O)CC2C3CCC4CC(OC5OC(CO)C(O)C(O)C5OC5OC(CO)C(O)C(O)C5O)CCC4(C)C3CCC12C (stereo not shown) [Compound 19, Anemarnoside A]
- Nitrite [1, 17]: 23.63 ± 1.13 µM
- Nitrite [1, 18]: 9.83 ± 0.30 µM
- inhibition at 25 µM ([1]; Mus musculus, read-out: % Inhibition of NO Production, 25 μM compound, LPS 100 ng/mL, 24 h): 25.2 ± 8.72%
- inhibition at 50 µM ([1]; Mus musculus, read-out: % Inhibition of NO Production, 50 μM compound, LPS 100 ng/mL, 24 h): 66.9 ± 2.82%
- viability at 24 h, 25 µM [14]: 124 ± 3.13%
- viability at 24 h, 50 µM [14]: 126 ± 3%

Structure (SMILES): CC1=C(CCC(C)COC2OC(CO)C(O)C(O)C2O)OC2CC3C4CCC5CC(OC6OC(CO)C(O)C(O)C6OC6OC(CO)C(O)C(O)C6O)CCC5(C)C4CCC3(C)C12 (stereo not shown) [Compound 11, Timosaponin BIII]
- Nitrite [1, 17]: 8.55 ± 0.25 µM
- Nitrite [1, 18]: 4.24 ± 0.10 µM
- % Inhibition of NO Production [1, 18]: 86% and 86.67 ± 0.37 %
- iNOS protein expression [6]: significantly attenuated
- TNF-α mRNA expression [7]: significantly suppressed
- IL-6 mRNA expression [8]: significantly suppressed
- TNF-α production (protein) [9]: significantly suppressed
- IL-6 production (protein) [10]: significantly suppressed
- phosphorylation of Akt / PI3K/Akt signaling activation [11]: attenuated
- NF-κB signaling / p65 subunit into nuclei [12]: no effect
- cytotoxicity against N9 microglial cells (in words) [15]: non-cytotoxic
- % Cell Viability ([15]; mouse, 24 h, 50 µM): 74.93 ± 3.15 %
- antidepressive activity [16]: antidepressive activity
- viability at 24 h, 25 µM [14]: 120 ± 11.8%

Reference: PMC6222787, “Anti-Inflammatory Activities of Compounds Isolated from the Rhizome of Anemarrhena asphodeloides” (Molecules : A Journal of Synthetic Chemistry and Natural …, 2018)
